Legend:
[1] = tested on: VeroE6 cells; details: uninfected VeroE6 cells, MTS assay; mean ± SD of duplicate experiments
[2] = tested on: SARS-CoV-2; test: microbe, parasite or virus in culture; format: cell-based; details: Severe acute respiratory syndrome coronavirus 2; […]; mean ± SD of duplicate experiments; read-out: Anti-SARS-CoV-2 activity EC50
[3] = in vitro; details: chlorocebus sabaeus

Compound: CCCOc1ccc(-c2cc(OCCN3CCN(Cc4ccccc4)CC3)c3cccc(OC)c3n2)cc1 [Compound 5f]
- VeroE6 cells CC50 [1]: lacked cytotoxicity
- melting point: 95 to 97 °C
- EC50 [2]: 35.9 ± 32.2 µM
- CC50 [3]: > 100 µM
